Laboratory results as given in patent publication US5591741A, “Fungicidal spiroheterocyclic derivatives” (American Cyanamid Company, priority 1993, dated 1997).

Columns and labels:
Pyricularia oryzae = type: in vivo; conditions: rice seedlings, direct therapeutic foliar spray, 600 ppm, 4-5 days
Phytophthora infestans = type: in vivo; conditions: tomato, direct protectant foliar spray
Venturia inaequalis = assay: Activity against apple scab in-vitro (VII); type: cell-based; conditions: 10 ppm, 10 days, 20° C., mycelial growth
Summary of the method: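 V. inaequalis propagules (5×10^4/ml, malt agar-grown) were exposed in half-strength PDB to 10 ppm final test compound delivered in acetone. Growth was scored after incubation for 10 days at 20° C, as a rating relative to untreated or diluent-sprayed controls.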

[1] = test system: Erysiphe graminis f.sp. hordei; assay: Direct protectant activity against barley powdery mildew (EGP); type: in vivo; conditions: direct protectant foliar spray, 8 days
Summary of the method: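 Rating reflects percentage of leaf area with sporulation compared with untreated or diluent-sprayed controls. Protectant spray was applied to single-leaf barley (cv Golden Promise) 24 h before conidia inoculation. Plants were kept at 18 °C and 40% RH throughout, with 8 days of disease development.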

[2] = test system: Pseudocercosporella herpotrichoides; assay: Activity against wheat eyespot in-vitro (PHI); type: cell-based; conditions: 10 ppm, 10 days, 20° C., mycelial growth
Summary of the method: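 Mycelial growth was scored after 10 days at 20 °C against untreated or diluent controls. The broth was half-strength potato dextrose, holding 10 ppm test compound (from acetone) and 5×10^4 fragments/ml of the eyespot fungus.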

Rhizoctonia solani = assay: Activity against Rhizoctonia in-vitro (RSI); type: cell-based; conditions: 10 ppm, 10 days, 20° C., mycelial growth
Summary of the method: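 Compound at a final 10 ppm (acetone vehicle) in half-strength PDB, inoculated with 5×10^4 fragments/ml of shaken-culture R. solani mycelium. After incubation at 20° C for 10 days, growth scored as a rating versus untreated or diluent-treated controls.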

Plasmopara viticola = assay: Antisporulant activity against vine downy mildew (PVA); type: in vivo; conditions: vine leaves, antisporulant foliar spray, 600 ppm, 750 l/ha
Summary of the method: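 Cabernet Sauvignon vines (~8 cm) inoculated on lower leaf surfaces with 5×10^4 zoosporangia/ml, held 24 h at 21° C high humidity then 24 h glasshouse. Infected leaves sprayed underside with 600 ppm compound in 1:1 water/acetone, 0.04% Tween 20, 750 l/ha; 96 h glasshouse, 24 h humidity. Sporulating leaf area rated versus control.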

Botrytis cinerea = assay: Direct protectant activity against broad bean grey mould (BCB); type: in vivo; conditions: direct protectant foliar spray, 600 ppm, 4 days
Summary of the method: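 Protectant foliar test: lesion coverage assessed 4 days after inoculation and rated relative to untreated or diluent-sprayed plants. Compound applied at 600 ppm to cv The Sutton leaves 24 h before 10^6 conidia/ml suspension; incubation at 22 °C in high humidity.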

[3] = test system: Erysiphe graminis f.sp. hordei; assay: Activity against barley powdery mildew, direct therapeutic (EGT); type: in vivo; conditions: direct therapeutic foliar spray, 600 ppm, up to 7 days
Summary of the method: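 A curative spray at 600 ppm was applied to single-leaf Golden Promise barley inoculated with powdery mildew conidia the previous day. After up to 7 days at 18 °C and 40% humidity, disease control was rated from percent leaf area sporulating relative to untreated or diluent-sprayed controls.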

Leptosphaeria nodorum = assay: Activity against wheat leafspot (LN); type: in vivo; conditions: direct therapeutic foliar spray, 600 ppm, 6-8 days
Summary of the method: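 Therapeutic foliar spray: compound at 600 ppm applied to single-leaf wheat (cv Norman) 24 h after inoculation with 1.5×10^6 conidia/ml. Disease control scored after 6-8 days at 22° C and 70% humidity as lesions per leaf versus untreated or diluent-sprayed controls.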

Alternaria solani = assay: Activity against tomato early blight (AS); type: in vivo; conditions: Table VI; tomato seedlings, contact prophylactic foliar spray, 4 days
Summary of the method: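 Plants were challenged with A. solani conidia (10^4 spores/ml) 24 h after a protective foliar spray of compound in 50:50 acetone/water plus 0.04% Tween 20. Held humid at 21° C for 4 days, then percent leaf area with lesions was scored as a rating relative to controls.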

CN(CC1CCCCC1)C1COC2(CCC(C(C)(C)C)CC2)C1 (stereo not shown) [Compound 91]
1 (about 50-80% disease control): disease control rating BCB (Botrytis cinerea) | disease control rating LN (Leptosphaeria nodorum)
2 (greater than 80% disease control): disease control rating PIP (Phytophthora infestans) | disease control rating EGP [1] | disease control rating PHI [2] | disease control rating EGT [3]
0 (less than 50% disease control): disease control rating PO (Pyricularia oryzae) | disease control rating VII (Venturia inaequalis) | disease control rating RSI (Rhizoctonia solani) | disease control rating PVA (Plasmopara viticola) | disease control rating AS (Alternaria solani)

CCN(CC1CCCCC1)C1COC2(CCC(C(C)(C)C)CC2)C1 (stereo not shown) [Compound 92]
1 (about 50-80% disease control): disease control rating RSI (Rhizoctonia solani)
0 (less than 50% disease control): disease control rating PO (Pyricularia oryzae) | disease control rating VII (Venturia inaequalis) | disease control rating PHI [2] | disease control rating PVA (Plasmopara viticola) | disease control rating LN (Leptosphaeria nodorum) | disease control rating AS (Alternaria solani)
2 (greater than 80% disease control): disease control rating PIP (Phytophthora infestans) | disease control rating EGP [1] | disease control rating BCB (Botrytis cinerea) | disease control rating EGT [3]

CCCN(CC1CCCCC1)C1COC2(CCC(C(C)(C)C)CC2)C1 (stereo not shown) [Compound 93]
0 (less than 50% disease control): disease control rating PO (Pyricularia oryzae) | disease control rating VII (Venturia inaequalis) | disease control rating PHI [2] | disease control rating PVA (Plasmopara viticola) | disease control rating BCB (Botrytis cinerea) | disease control rating LN (Leptosphaeria nodorum) | disease control rating AS (Alternaria solani)
1 (about 50-80% disease control): disease control rating RSI (Rhizoctonia solani)
2 (greater than 80% disease control): disease control rating PIP (Phytophthora infestans) | disease control rating EGP [1] | disease control rating EGT [3]

CCC(CC)N(C)C1COC2(CCC(C(C)(C)C)CC2)C1 (stereo not shown) [Compound 94]
0 (less than 50% disease control): disease control rating PO (Pyricularia oryzae) | disease control rating PIP (Phytophthora infestans) | disease control rating VII (Venturia inaequalis) | disease control rating PHI [2] | disease control rating PVA (Plasmopara viticola) | disease control rating BCB (Botrytis cinerea) | disease control rating AS (Alternaria solani)
2 (greater than 80% disease control): disease control rating EGP [1] | disease control rating EGT [3]
1 (about 50-80% disease control): disease control rating RSI (Rhizoctonia solani) | disease control rating LN (Leptosphaeria nodorum)

CCC(CC)N(CC)C1COC2(CCC(C(C)(C)C)CC2)C1 (stereo not shown) [Compound 95]
1 (about 50-80% disease control): disease control rating RSI (Rhizoctonia solani)
0 (less than 50% disease control): disease control rating PO (Pyricularia oryzae) | disease control rating PIP (Phytophthora infestans) | disease control rating VII (Venturia inaequalis) | disease control rating PHI [2] | disease control rating PVA (Plasmopara viticola) | disease control rating BCB (Botrytis cinerea) | disease control rating LN (Leptosphaeria nodorum) | disease control rating AS (Alternaria solani)
2 (greater than 80% disease control): disease control rating EGP [1] | disease control rating EGT [3]

CCCN(C(CC)CC)C1COC2(CCC(C(C)(C)C)CC2)C1 (stereo not shown) [Compound 96]
0 (less than 50% disease control): disease control rating PO (Pyricularia oryzae) | disease control rating PIP (Phytophthora infestans) | disease control rating PHI [2] | disease control rating PVA (Plasmopara viticola) | disease control rating BCB (Botrytis cinerea) | disease control rating LN (Leptosphaeria nodorum) | disease control rating AS (Alternaria solani)
2 (greater than 80% disease control): disease control rating EGP [1] | disease control rating EGT [3]
1 (about 50-80% disease control): disease control rating VII (Venturia inaequalis) | disease control rating RSI (Rhizoctonia solani)

CC(C)(C)C1CCC2(CC1)CC(N)CO2 (stereo not shown) [Compound 97, 3-amino-8-t-butyl-1-oxaspiro(4,5)-decane]
2 (greater than 80% disease control): disease control rating PIP (Phytophthora infestans) | disease control rating EGP [1] | disease control rating EGT [3]
0 (less than 50% disease control): disease control rating PO (Pyricularia oryzae) | disease control rating VII (Venturia inaequalis) | disease control rating PHI [2] | disease control rating RSI (Rhizoctonia solani) | disease control rating PVA (Plasmopara viticola) | disease control rating BCB (Botrytis cinerea) | disease control rating LN (Leptosphaeria nodorum) | disease control rating AS (Alternaria solani)

CC(C)(C)C1CCC2(CC1)CC(NC1CCC3CCCCC3C1)CO2 (stereo not shown) [Compound 98]
2 (greater than 80% disease control): disease control rating PIP (Phytophthora infestans) | disease control rating VII (Venturia inaequalis) | disease control rating EGP [1] | disease control rating BCB (Botrytis cinerea) | disease control rating EGT [3]
0 (less than 50% disease control): disease control rating PO (Pyricularia oryzae) | disease control rating PHI [2] | disease control rating PVA (Plasmopara viticola) | disease control rating LN (Leptosphaeria nodorum) | disease control rating AS (Alternaria solani)
1 (about 50-80% disease control): disease control rating RSI (Rhizoctonia solani)
